Measurements taken from ChEMBL document CHEMBL1201862, “PubChem BioAssay data set” (2004).
Blank lines part the entries; values can stand above or below the compound they belong to. Calls of active or inactive are those of the source.

How the values were obtained:
[1] = biological target: T1, Alkaline phosphatase, tissue-nonspecific isozyme (Homo sapiens, UniProt P05186)
T1 sequence (P05186 whole entry): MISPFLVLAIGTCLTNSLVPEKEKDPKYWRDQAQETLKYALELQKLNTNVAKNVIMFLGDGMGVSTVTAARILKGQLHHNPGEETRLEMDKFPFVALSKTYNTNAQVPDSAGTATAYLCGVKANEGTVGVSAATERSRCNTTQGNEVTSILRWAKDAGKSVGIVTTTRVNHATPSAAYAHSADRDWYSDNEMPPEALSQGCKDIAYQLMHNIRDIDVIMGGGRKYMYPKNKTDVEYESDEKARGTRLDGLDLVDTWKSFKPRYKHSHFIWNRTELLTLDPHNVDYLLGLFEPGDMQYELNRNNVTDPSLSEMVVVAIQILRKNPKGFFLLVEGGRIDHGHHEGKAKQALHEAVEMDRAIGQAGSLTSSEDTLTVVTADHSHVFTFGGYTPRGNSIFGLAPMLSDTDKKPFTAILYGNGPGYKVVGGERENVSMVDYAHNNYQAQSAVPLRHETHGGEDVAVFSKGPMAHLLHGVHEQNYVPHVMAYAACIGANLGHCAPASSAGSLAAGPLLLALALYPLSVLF

Protein Tat = biological target: T2, Protein Tat (Human immunodeficiency virus type 1 group M subtype B (isolate HXB2)(HIV-1), UniProt P04608); assay type: functional;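 further: tat binding to TAR RNA read out by fluorescence polarization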
T2 sequence (P04608 whole entry): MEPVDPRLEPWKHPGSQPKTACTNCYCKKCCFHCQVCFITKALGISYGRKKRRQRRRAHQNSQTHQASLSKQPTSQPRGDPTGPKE

Procathepsin L = Procathepsin L (Homo sapiens, UniProt P07711)
Aspartyl aminopeptidase = Aspartyl aminopeptidase (Plasmodium falciparum 3D7, UniProt Q8I2J3)
[2] = biological target: Ras and Rab interactor 1/Tyrosine-protein kinase ABL1 (Homo sapiens, UniProt P00519+Q13671); assay type: functional;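 further: biochemical TR-FRET dose-response test measuring inhibition of binding between Rin1 and Abl proteins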
[3] = biological target: T3, Histone-lysine N-methyltransferase NSD2 (Homo sapiens, UniProt O96028); assay type: biochemical
T3 sequence (O96028 whole entry): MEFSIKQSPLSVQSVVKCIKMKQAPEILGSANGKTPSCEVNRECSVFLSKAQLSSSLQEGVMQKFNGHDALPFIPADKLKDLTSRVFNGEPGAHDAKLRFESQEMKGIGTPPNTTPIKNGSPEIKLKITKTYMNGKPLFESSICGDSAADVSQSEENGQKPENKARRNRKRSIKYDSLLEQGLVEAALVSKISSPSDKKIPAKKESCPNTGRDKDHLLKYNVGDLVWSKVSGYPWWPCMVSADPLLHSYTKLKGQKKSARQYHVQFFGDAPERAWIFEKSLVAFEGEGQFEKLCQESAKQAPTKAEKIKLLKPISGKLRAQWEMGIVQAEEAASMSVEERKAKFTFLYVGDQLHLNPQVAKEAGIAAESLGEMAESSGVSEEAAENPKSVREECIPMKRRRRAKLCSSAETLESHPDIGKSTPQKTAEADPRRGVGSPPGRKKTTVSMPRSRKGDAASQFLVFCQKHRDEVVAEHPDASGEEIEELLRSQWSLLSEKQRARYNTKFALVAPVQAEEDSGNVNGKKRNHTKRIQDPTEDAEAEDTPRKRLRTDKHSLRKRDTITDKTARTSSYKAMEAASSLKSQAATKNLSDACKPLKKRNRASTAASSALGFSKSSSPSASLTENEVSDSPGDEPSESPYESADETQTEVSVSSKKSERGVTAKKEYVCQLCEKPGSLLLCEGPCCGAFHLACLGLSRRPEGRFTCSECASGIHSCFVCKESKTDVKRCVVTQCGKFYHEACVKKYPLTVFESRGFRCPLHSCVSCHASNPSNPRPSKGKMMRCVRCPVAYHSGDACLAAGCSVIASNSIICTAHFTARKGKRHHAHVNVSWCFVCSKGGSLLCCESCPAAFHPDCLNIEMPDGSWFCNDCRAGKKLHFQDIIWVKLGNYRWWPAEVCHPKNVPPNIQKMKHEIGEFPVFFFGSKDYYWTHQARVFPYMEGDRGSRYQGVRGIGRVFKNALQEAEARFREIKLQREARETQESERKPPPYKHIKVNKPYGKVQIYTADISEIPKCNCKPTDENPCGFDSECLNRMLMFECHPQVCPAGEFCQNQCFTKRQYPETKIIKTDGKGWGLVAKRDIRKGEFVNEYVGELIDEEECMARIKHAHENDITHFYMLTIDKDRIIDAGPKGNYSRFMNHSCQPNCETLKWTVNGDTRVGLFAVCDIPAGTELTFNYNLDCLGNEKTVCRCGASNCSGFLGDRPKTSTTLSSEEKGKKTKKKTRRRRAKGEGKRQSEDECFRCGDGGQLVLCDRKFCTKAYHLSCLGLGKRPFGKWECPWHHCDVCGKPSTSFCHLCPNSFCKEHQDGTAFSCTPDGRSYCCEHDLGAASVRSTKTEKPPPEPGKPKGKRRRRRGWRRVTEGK

[4] = biological target: Peroxisome proliferator-activated receptor gamma/Nuclear receptor coactivator 2 (Homo sapiens, UniProt P37231); assay type: functional;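 further: agonist potency for raising coactivator recruitment to the receptor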
[5] = biological target: Peroxisome proliferator-activated receptor gamma/Nuclear receptor coactivator 3 (Homo sapiens, UniProt P37231); assay type: functional;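 further: agonist potency for raising coactivator recruitment to the receptor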
[6] = biological target: Peroxisome proliferator-activated receptor gamma/Nuclear receptor coactivator 1 (Homo sapiens, UniProt P37231); assay type: functional;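 further: agonist potency as compounds enhance coactivator SRC-1 recruitment to PPARgamma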
Cytochrome P450 2D6 = Cytochrome P450 2D6 (Homo sapiens, UniProt P10635); assay: qHTS Assay for Inhibitors and Substrates of Cytochrome P450 2D6. [Related pubchem assays: 410 ]; assay type: ADME; conditions: read-out: Potency
[7] = CCR5-tropic HIV-1 fusion blockers – cell-based, CCR5-tropic Env, dose response (AID 2279); assay type: functional
[8] = biological target: Neuropeptide Y receptor type 1 (Homo sapiens, UniProt P25929); assay: Fluorescence-based counterscreen for agonists of NPY-Y2: cell-based high-throughput dose response assay for agonists of NPY-Y1.; assay type: functional
HEK293 = assay: Fluorescence-based counterscreen for potentiators or agonists of NPY-Y2: cell-based high-throughput dose response assay to identify inhibitors of cyclic nucleotide gated ion channel (CNGC) activity. In this assay, the parental HEK293 cell line transfected with a cyclic-nucleotide gated ion channel (CNGC)-based cAMP sensor is used to measure inhibition of isoproterenol-induced CNGC activity by test compound.; assay type: functional; conditions: Homo sapiens;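 further: stimulus is 1 µM isoproterenol at EC100 plus PDE inhibitor Ro 20-1724 at 25 µM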
[9] = biological target: Neuropeptide Y receptor type 2 (Homo sapiens, UniProt P49146); assay: Fluorescence-based cell-based high-throughput dose response assay for agonists of NPY-Y2. [Related pubchem assays: 1703 (Screening assay (CNGC inhibitors).), 1359 (Screening assay (NPY-Y2 potentiators or agonists).), 1304 (Screening assay (NPY-Y1 potentiators or agonists).), 1710 (Screening assay (NPY-Y2 agonists).), 1791 (Summary AID.)]; assay type: functional
[10] = mitochondrial function rescue without frataxin homolog – Friedreich's ataxia, plus single-dose screen, dose response (AID 1465); assay type: functional;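 further: yeast depleted of Yfh1p frataxin homolog grown on glycerol needing respiration; WST-1 tetrazolium dye reduction as measure of cellular dehydrogenase metabolic activity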
Leucine aminopeptidase = biological target: T4, Leucine aminopeptidase (Plasmodium falciparum 3D7, UniProt Q8IL11); assay: P. falciparum M17LAP inhibitors, primary screen, biochemical, fluorogenic H-Leu-NHMec substrate, 1536-well (AID 1619); assay type: functional
T4 sequence (Q8IL11 whole entry): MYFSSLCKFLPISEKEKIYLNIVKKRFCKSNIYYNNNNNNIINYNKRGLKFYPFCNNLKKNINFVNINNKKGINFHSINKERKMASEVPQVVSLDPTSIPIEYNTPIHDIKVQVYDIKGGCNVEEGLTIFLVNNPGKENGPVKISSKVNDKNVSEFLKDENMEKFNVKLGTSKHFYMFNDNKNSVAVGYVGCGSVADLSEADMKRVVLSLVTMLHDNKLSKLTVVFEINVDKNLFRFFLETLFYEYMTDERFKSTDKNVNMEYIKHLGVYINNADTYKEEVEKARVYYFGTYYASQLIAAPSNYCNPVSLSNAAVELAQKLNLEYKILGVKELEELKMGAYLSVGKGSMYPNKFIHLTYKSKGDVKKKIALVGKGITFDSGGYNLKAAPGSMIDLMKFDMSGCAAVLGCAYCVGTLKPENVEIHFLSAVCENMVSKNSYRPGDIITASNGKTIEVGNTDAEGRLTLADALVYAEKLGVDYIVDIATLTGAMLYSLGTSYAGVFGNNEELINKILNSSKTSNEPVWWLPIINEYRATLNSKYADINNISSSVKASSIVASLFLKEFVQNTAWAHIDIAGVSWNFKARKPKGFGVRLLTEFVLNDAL

Streptococcus = assay: Luminescence Microorganism-Based Dose Response Follow up to Identify Compounds Cytotoxic to Streptococcus. [Related pubchem assays: 1677 (Project Summary), 1915, 1914, 1902 (Retest at Dose), 1900 (Counter Screen), 1662 (Primary HTS)]; assay type: functional, organism-based
[11] = biological target: T5, Potassium voltage-gated channel subfamily KQT member 2 (Rattus norvegicus, UniProt O88943); assay: (§1) Mode of action assay - current amplitude concentration response for derivatives of ZTZ240, a potentiator of KCNQ2 potassium channels. [Related pubchem assays: 2258 (Summary assay for the KCNQ2 potentiators.), 2239 (Primary HTS assay for KCNQ2 potentiators with 305606 compounds tested, and 1644 are found to be active.)]; assay type: functional
[12] = biological target: T5, Potassium voltage-gated channel subfamily KQT member 2; assay: as §1, with “action” for “action assay”, “deactivation constant” for “current amplitude”, “ztz240,” for “derivatives of ZTZ240,”; assay type: functional

T5 sequence (O88943 whole entry): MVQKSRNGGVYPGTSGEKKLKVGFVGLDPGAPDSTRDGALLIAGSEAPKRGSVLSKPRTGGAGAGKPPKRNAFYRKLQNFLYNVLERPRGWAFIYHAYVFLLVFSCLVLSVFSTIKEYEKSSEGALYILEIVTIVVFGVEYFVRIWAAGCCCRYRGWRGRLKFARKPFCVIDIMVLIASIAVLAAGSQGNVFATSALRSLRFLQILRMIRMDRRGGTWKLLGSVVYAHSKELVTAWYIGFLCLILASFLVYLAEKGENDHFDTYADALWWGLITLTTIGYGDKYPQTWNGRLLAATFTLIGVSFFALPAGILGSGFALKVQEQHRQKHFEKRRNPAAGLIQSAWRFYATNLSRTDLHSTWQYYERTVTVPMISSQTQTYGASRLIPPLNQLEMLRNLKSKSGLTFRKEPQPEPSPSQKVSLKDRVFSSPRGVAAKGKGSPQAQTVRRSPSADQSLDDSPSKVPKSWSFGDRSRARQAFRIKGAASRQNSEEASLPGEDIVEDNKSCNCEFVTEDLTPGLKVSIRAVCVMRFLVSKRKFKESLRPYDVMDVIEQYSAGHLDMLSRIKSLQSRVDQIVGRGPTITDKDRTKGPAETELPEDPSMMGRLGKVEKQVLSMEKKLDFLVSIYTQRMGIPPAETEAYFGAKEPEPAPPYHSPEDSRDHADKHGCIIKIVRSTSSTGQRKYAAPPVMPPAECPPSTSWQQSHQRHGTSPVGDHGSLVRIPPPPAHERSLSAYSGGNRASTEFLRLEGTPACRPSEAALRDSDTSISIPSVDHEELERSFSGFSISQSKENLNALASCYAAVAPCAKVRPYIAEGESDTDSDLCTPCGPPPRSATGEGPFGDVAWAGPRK
Sequence of Neuropeptide Y receptor type 1 (P25929 whole entry): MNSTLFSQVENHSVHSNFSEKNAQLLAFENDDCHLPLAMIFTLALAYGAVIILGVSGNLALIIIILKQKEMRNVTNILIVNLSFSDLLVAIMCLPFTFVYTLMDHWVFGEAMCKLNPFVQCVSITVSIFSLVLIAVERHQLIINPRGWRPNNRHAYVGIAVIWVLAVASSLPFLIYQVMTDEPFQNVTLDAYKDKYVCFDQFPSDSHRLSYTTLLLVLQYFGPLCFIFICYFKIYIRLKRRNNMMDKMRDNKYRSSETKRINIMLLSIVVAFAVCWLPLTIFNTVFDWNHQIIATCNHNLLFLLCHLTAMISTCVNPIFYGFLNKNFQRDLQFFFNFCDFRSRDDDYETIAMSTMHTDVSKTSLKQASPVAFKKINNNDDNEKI
Sequence of Aspartyl aminopeptidase (Q8I2J3 whole entry): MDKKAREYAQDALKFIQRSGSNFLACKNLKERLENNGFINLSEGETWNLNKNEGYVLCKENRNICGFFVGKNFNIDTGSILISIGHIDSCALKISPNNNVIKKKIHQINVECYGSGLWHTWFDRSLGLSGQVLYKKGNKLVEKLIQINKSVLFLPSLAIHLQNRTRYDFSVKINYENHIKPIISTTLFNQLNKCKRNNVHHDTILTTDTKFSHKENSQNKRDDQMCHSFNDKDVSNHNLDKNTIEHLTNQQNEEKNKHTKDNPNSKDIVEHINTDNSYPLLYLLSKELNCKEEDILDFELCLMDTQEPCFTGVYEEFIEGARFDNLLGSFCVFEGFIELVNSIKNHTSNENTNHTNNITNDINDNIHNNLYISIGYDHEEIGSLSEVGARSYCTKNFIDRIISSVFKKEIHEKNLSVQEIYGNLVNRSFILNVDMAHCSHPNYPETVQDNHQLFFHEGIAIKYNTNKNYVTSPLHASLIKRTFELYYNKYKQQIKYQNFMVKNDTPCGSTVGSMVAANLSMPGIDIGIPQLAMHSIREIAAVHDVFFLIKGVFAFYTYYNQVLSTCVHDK
Sequence of Ras and Rab interactor 1/Tyrosine-protein kinase ABL1 (P00519 whole entry): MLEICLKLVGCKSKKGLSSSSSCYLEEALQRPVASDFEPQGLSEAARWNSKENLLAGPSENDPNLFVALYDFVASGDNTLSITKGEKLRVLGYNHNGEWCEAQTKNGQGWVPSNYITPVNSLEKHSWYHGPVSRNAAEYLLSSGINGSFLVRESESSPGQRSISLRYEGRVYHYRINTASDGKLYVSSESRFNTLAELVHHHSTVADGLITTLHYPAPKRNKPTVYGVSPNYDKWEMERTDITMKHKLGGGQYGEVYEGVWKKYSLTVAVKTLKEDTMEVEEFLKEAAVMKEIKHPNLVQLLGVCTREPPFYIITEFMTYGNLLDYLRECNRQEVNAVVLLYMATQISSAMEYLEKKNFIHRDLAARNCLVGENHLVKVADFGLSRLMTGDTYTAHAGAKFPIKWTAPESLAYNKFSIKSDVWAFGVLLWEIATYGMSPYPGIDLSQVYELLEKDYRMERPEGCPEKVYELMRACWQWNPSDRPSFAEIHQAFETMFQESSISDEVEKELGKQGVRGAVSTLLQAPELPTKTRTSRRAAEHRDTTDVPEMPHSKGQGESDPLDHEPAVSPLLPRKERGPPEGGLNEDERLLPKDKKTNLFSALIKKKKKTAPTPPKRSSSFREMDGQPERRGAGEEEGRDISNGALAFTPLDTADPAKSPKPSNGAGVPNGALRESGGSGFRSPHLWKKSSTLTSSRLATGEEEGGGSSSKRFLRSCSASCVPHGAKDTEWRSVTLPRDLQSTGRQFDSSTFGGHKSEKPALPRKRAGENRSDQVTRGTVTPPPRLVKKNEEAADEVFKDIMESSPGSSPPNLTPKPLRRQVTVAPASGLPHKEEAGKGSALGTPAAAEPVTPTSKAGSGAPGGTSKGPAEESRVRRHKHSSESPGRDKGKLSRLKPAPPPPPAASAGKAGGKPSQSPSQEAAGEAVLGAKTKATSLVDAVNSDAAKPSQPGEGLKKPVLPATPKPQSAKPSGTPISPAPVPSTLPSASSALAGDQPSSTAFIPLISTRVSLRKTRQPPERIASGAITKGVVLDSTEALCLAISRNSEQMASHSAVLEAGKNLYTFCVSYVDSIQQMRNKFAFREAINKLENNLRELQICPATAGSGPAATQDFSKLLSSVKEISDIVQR
Sequence of Ras and Rab interactor 1/Tyrosine-protein kinase ABL1 (Q13671 whole entry): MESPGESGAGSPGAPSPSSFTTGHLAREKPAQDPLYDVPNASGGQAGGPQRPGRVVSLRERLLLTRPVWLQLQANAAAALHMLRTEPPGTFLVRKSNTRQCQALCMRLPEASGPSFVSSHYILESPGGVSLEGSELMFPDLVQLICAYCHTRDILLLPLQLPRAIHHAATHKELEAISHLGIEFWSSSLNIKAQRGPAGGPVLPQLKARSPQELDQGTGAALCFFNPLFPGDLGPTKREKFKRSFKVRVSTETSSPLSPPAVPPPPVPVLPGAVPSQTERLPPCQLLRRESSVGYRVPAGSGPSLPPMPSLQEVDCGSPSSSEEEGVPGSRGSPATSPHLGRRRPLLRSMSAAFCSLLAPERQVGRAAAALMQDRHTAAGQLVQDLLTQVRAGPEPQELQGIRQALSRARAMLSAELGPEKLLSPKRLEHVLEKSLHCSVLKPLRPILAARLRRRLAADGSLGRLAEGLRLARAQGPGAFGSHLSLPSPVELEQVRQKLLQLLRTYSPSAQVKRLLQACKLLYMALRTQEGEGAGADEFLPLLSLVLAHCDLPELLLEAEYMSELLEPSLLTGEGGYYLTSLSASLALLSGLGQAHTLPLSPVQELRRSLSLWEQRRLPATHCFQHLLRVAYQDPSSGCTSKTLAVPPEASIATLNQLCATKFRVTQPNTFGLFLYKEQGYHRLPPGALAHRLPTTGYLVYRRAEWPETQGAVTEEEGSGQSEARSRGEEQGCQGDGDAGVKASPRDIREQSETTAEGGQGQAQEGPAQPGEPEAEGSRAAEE
Sequence of Cytochrome P450 2D6 (P10635 whole entry, the tested form may be a part): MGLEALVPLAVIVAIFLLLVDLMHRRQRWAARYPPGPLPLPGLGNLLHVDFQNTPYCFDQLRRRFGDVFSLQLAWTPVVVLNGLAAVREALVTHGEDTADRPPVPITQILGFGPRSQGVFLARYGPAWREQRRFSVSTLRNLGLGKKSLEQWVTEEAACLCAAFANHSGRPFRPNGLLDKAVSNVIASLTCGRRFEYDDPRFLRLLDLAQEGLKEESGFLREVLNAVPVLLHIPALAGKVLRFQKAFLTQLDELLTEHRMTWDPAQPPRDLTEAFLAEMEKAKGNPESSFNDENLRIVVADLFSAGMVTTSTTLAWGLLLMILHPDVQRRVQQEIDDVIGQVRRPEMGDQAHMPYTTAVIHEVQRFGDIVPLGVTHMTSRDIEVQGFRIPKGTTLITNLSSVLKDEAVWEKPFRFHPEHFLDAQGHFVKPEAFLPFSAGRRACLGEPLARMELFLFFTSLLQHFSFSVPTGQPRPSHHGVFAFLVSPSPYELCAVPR
Sequence of Procathepsin L (P07711 whole entry): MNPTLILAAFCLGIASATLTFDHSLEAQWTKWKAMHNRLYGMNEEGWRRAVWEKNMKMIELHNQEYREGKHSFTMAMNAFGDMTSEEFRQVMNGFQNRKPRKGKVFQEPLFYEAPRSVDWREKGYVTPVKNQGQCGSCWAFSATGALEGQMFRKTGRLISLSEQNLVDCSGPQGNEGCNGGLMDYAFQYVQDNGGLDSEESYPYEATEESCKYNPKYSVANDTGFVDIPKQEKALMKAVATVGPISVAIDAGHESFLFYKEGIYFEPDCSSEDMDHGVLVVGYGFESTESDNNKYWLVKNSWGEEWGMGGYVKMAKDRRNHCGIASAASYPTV
Sequence of Neuropeptide Y receptor type 2 (P49146 whole entry): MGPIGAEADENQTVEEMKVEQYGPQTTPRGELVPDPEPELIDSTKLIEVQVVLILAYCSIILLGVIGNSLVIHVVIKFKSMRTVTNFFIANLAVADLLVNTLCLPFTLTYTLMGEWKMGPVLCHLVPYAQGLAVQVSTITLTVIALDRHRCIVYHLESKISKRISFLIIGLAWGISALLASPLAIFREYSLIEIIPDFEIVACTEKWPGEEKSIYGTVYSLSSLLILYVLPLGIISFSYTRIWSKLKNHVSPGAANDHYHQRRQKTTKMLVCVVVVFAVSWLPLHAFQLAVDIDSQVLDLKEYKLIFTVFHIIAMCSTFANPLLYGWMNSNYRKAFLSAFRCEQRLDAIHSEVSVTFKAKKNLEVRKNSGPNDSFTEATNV

SMILES: O=C(/C=C/c1ccc(O)c(O)c1)OC1C(O)CC(OC(=O)/C=C/c2ccc(O)c(O)c2)(C(=O)O)CC1O (stereo not given)
IC50 (Protein Tat): 85.2 µM (inconclusive)
IC50 (Procathepsin L): > 59.6 µM (not active)
IC50 (Aspartyl aminopeptidase): 1.94 µM (active)
IC50 [2]: 18.9 µM (inactive)
IC50 (cells): 31.9 µM (active)
AC50 [3]: 5.43 µM (active)

SMILES: O=C1/C(=C\c2ccc(O)c(O)c2)C(c2ccccc2)=NN1c1ccccc1
IC50 [7]: 27.1 µM (active)

SMILES: O=C(N/N=C/c1ccc(OC(F)F)cc1)c1cccc(S(=O)(=O)N2CCOCC2)c1
EC50 [8]: > 35.4 µM (not active)
EC50 (HEK293): > 35.4 µM (not active)
EC50 [9]: > 35.4 µM (not active)

SMILES: Cc1ccc(C(=O)N2c3ccccc3Sc3ccccc32)cc1
EC50 (Streptococcus): > 500 µM (not active)

More lines, main results first:

EC50 [1]: > 100 µM (not active)
SMILES: Cc1ccc(C)n1-c1ccc(C(=O)NN)s1

EC50 [4]: > 79.4 µM (not active)
EC50 [5]: > 79.4 µM (not active)
EC50 [6]: > 79.4 µM (not active)
SMILES: CCOC(=O)c1c(C)[nH]c(C(=O)COC(=O)CNC(=O)C2CCCCC2)c1C

AC50 (Cytochrome P450 2D6): 6.31 µM (inconclusive)
SMILES: CC12C=C(/C=C/CCc3ccco3)C(C)(C1)C(CCc1ccco1)CC2=O (stereo not given)

IC50 (Leucine aminopeptidase): 109 µM (active)
SMILES: N#C/C(=C/c1ccc(N2CCOCC2)o1)C(=O)NC1CCCCC1
EC50 [10]: > 100 µM (active)

EC50 [11]: 1.46 µM (active)
EC50 [12]: 5.9 µM (active)
SMILES: O=C(Nc1ccc(Cl)nc1)c1ccc(F)cc1
